Measurements as given in US9951058B2, “Compound, pharmaceutically acceptable salt or optical isomer thereof, method for preparing the same, and pharmaceutical composition for prevention or treatment of viral diseases containing same as active ingredient” (Korea Research Institute of Chemical Technology, priority 2012, dated 2018).
In brackets after ≈: the same amount, converted by molar mass.

Assays:
HRV 14 = experiment: Cytopathic effect (CPE) inhibition assay; assay type: cell-based, human rhinovirus; conditions: Human rhinovirus sp., HeLa, 72 h, host cell HeLa, 3 days, MEM/2% FBS, MTT assay; read-out: EC50 HRV 14
HRV 21 = experiment: Cytopathic effect (CPE) inhibition assay; assay type: cell-based, human rhinovirus; conditions: Human rhinovirus sp., 72 h; host cell HeLa, 3 days, MEM/2% FBS, MTT assay; read-out: EC50 HRV 21
HRV 71 = experiment: Cytopathic effect (CPE) inhibition assay; assay type: cell-based, human rhinovirus; conditions: Human rhinovirus sp., 72 h; host cell HeLa, 3 days, MEM/2% FBS, MTT assay; read-out: EC50 HRV 71
[1] = test system: coxsackievirus B1 (Cox B1); experiment: Multicycle cytopathic effect (CPE) reduction assay; assay type: cell-based; conditions: Enterovirus B, B1, 72 h, read-out: EC50 CoxB1
[2] = test system: coxsackievirus B3 (Cox B3); experiment: Multicycle cytopathic effect (CPE) reduction assay; assay type: cell-based; conditions: Enterovirus B, B3, 72 h, read-out: EC50 CoxB3
poliovirus 3 (PV3) = experiment: microbe, parasite or virus in culture; assay type: cell-based; conditions: Enterovirus C, 72 h, read-out: EC50 PV3
in vitro = conditions: human
[3] = Cytotoxicity (CC50) in multicycle CPE reduction assay, MTS; conditions: human

Row | Compound | EC50 (HRV 14) | EC50 (HRV 21) | EC50 (HRV 71) | EC50 [1] | EC50 [2] | EC50 (poliovirus 3 (PV3)) | CC50 (in vitro) | CC50 at 3 days [3]
1 | CCCCCCC(=O)C(=O)NC12C(=O)c3ccccc3C1(O)Oc1cc(C(C)C)ccc12 (stereo not drawn) [Example 6, N-(4b-hydroxy-7-isopropyl-10-oxo-9b, 10-dihydro-4bH-indeno[1,2-b]benzofuran-9b-yl)-2-oxo octanamide] | < 1 µg/mL | > 8.57 µg/mL | > 8.57 µg/mL | 0.013 µg/mL (≈ 0.0298 µM) | 0.015 µg/mL (≈ 0.0344 µM) | 1.23 µg/mL (≈ 2.82 µM) | 8.57 µg/mL (≈ 19.7 µM) | 8.57 µg/mL (≈ 19.7 µM)
2 | CC(C)c1ccc2c(c1)OC1(O)c3ccccc3C(=O)C21NC(=O)C(=O)c1ccccc1 (stereo not drawn) [Example 15, N-(4b-hydroxy-7-isopropyl-10-oxo-9b, 10-dihydro-4bH-indeno[1,2-b]benzofuran-9b-yl)-2-oxo-2-phenyl acetamide] | < 1 µg/mL | > 8.72 µg/mL | > 8.72 µg/mL | < 0.01 µg/mL | < 0.01 µg/mL | < 1 µg/mL | 8.72 µg/mL (≈ 20.4 µM) | 8.8 µg/mL (≈ 20.6 µM)
3 | CCC(C)C(=O)C(=O)NC12C(=O)c3cccc([N+](=O)[O-])c3C1(O)Oc1cc(C(C)C)ccc12 (stereo not drawn) [Example 28, N-(4b-hydroxy-7-isopropyl-4-nitro-10-oxo-4b, 10-dihydro-9bH-indeno[1,2-b]benzofuran-9b-yl)-3 methyl-2-oxo pentanamide] | < 10 µg/mL | > 10 µg/mL | > 10 µg/mL | < 1 µg/mL | < 10 µg/mL | > 10 µg/mL | > 10 µg/mL | > 10 µg/mL
4 | CC(C)c1ccc2c(c1)OC1(O)c3cccc(N)c3C(=O)C21NC(=O)C(=O)c1ccccc1 (stereo not drawn) [Example 11, N-(1-amino-4b-hydroxy-7-isopropyl-10-oxo-9b, 10-dihydro-4bH-indeno[1,2-b]benzofuran-9b-yl)-2-oxo-2-phenyl acetamide] | < 0.1 µg/mL | 3.13 µg/mL (≈ 7.07 µM) | > 7.82 µg/mL | < 0.01 µg/mL | < 0.01 µg/mL | < 0.1 µg/mL | 7.82 µg/mL (≈ 17.7 µM) | 8.72 µg/mL (≈ 19.7 µM)
5 | CC(C)c1ccc2c(c1)OC1(O)c3ccccc3C(=O)C21NC(=O)CCC(=O)O (stereo not drawn) [Example 43] | > 10 µg/mL | > 10 µg/mL | > 10 µg/mL | < 1 µg/mL | < 1 µg/mL | > 10 µg/mL | > 10 µg/mL | > 10 µg/mL
6 | CC(=O)C(=O)NC12C(=O)c3c(N)cccc3C1(O)Oc1cc(C(C)C)ccc12 (stereo not drawn) [Example 22, N-(1-amino-4b-hydroxy-7-isopropyl-10-oxo-4b, 10-dihydro-9bH-indeno[1,2-b]benzofuran-9b-yl)-2-oxo propanamide] | < 0.01 µg/mL | < 10 µg/mL | 8.5 µg/mL (≈ 22.3 µM) | < 0.01 µg/mL | < 0.01 µg/mL | < 0.1 µg/mL | > 10 µg/mL | > 10 µg/mL
7 | CC(C)c1ccc2c(c1)OC1(O)c3ccccc3C(=O)C21NC(=O)C(=O)c1c[nH]c2ccccc12 (stereo not drawn) [Example 1, N-(4b-hydroxy-7-isopropyl-10-oxo-9b, 10-dihydro-4bH-benzo[d]indeno[1,2-b]furan-9b-yl)-2-(1H-indol-3-yl)-2-oxo acetamide] | < 1 µg/mL | > 7.91 µg/mL | > 7.91 µg/mL | 0.017 µg/mL (≈ 0.0364 µM) | 0.061 µg/mL (≈ 0.131 µM) | 1.1 µg/mL (≈ 2.36 µM) | 7.91 µg/mL (≈ 17 µM) | 8.57 µg/mL (≈ 18.4 µM)
8 | Cc1cc2c(cc1C)C1(NC(=O)C(=O)c3c[nH]c4ccccc34)C(=O)c3ccccc3C1(O)O2 (stereo not drawn) [Example 13, N-(4b-hydroxy-7,8-dimethyl-10-oxo-9b, 10-dihydro-9bH-indeno[1,2-b]benzofuran-9b-yl)-(1H-indo1-3-yl)-2-oxo acetamide] | 1.85 µg/mL (≈ 4.09 µM) | > 8.41 µg/mL | > 8.41 µg/mL | 0.061 µg/mL (≈ 0.135 µM) | 0.13 µg/mL (≈ 0.287 µM) | 1.98 µg/mL (≈ 4.38 µM) | 8.41 µg/mL (≈ 18.6 µM) | 8.31 µg/mL (≈ 18.4 µM)
9 | CC(C)c1ccc2c(c1)OC1(O)c3ccccc3C(=O)C21NC(=O)C(=O)Cc1ccc(O)cc1 (stereo not drawn) [Example 9, N-(4b-hydroxy-7-isopropyl-10-oxo-9b, 10-dihydro-4bH-indeno[1,2-b]benzofuran-9b-yl)-3-(4-hydroxyphenyl)-2-oxo propanamide] | > 3.76 µg/mL | > 3.76 µg/mL | > 3.76 µg/mL | 0.013 µg/mL (≈ 0.0284 µM) | 0.015 µg/mL (≈ 0.0328 µM) | < 1 µg/mL | 3.76 µg/mL (≈ 8.22 µM) | 9.21 µg/mL (≈ 20.1 µM)
10 | CC(C)c1ccc2c(c1)OC1(O)c3ccccc3C(=O)C21NC#N (stereo not drawn) [Example 46, N-(4b-hydroxy-7-isopropyl-10-oxo-4b, 10-dihydro-9bH-indeno[1,2-b]benzofuran-9b-yl)cyanamide] | > 10 µg/mL | > 10 µg/mL | > 10 µg/mL | < 10 µg/mL | < 10 µg/mL | > 10 µg/mL | > 10 µg/mL | > 10 µg/mL
11 | CC(C)c1ccc2c(c1)OC1(O)c3ccccc3C(=O)C21NC(=O)C(=O)Cc1ccccc1[N+](=O)[O-] (stereo not drawn) [Example 3, N-(4b-hydroxy-7-isopropyl-10-oxo-9b, 10-dihydro-4bH-indeno[1,2-b]benzofuran-9b-yl)-3-(2-nitrophenyl)-2-oxo propanamide] | > 1.76 µg/mL | > 1.76 µg/mL | > 1.76 µg/mL | 0.013 µg/mL (≈ 0.0267 µM) | 0.015 µg/mL (≈ 0.0308 µM) | < 1 µg/mL | 1.76 µg/mL (≈ 3.62 µM) | 2.38 µg/mL (≈ 4.89 µM)
12 | CC(C)NC(=O)CCC(=O)NC12C(=O)c3ccccc3C1(O)Oc1cc(C(C)C)ccc12 (stereo not drawn) [Example 45, N1-(4b-hydroxy-7-isopropyl-10-oxo-4b, 10-dihydro-9bH-indeno[1,2-b]benzofuran-9b-yl)-N4-isopropyl succinamide] |  |  |  | < 0.1 µg/mL | < 0.1 µg/mL | < 10 µg/mL | > 10 µg/mL | > 10 µg/mL
13 | CC(C)CC(=O)C(=O)NC12C(=O)c3c(N)cccc3C1(O)Oc1cc(C(C)C)ccc12 (stereo not drawn) [Example 49, N-(1-amino-4b-hydroxy-7-isopropyl-10-oxo-4b, 10-dihydro-9bH-indeno[1,2-b]benzofuran-9b-yl)-4-methyl-2-oxo pentanamide] | < 0.1 µg/mL | > 10 µg/mL | > 10 µg/mL | < 0.01 µg/mL | < 0.01 µg/mL | < 0.1 µg/mL | > 10 µg/mL | > 10 µg/mL
14 | CC(C)c1ccc2c(c1)OC1(O)c3c(cccc3[N+](=O)[O-])C(=O)C21NC(=O)C(=O)N(C)C (stereo not drawn) [Example 30, N1-(4b-hydroxy-7-isopropyl-4-nitro-10-oxo-4b, 10-dihydro-9bH-indeno[1,2-b]benzofuran-9b-yl)-N2-N2-dimethyl oxal amide] | > 10 µg/mL | > 10 µg/mL | > 10 µg/mL | < 10 µg/mL | < 10 µg/mL | > 10 µg/mL | > 10 µg/mL | > 10 µg/mL
15 | CC(C)c1ccc2c(c1)OC1(O)c3ccccc3C(=O)C21N/C(=N\C(=O)OC(C)(C)C)NC(=O)OC(C)(C)C (stereo not drawn) [Example 55] | < 10 µg/mL | > 10 µg/mL | > 10 µg/mL | < 1 µg/mL | < 1 µg/mL | > 10 µg/mL | > 10 µg/mL | > 10 µg/mL
16 | CC(C)c1ccc2c(c1)OC1(O)c3ccccc3C(=O)C21OC(=O)NCCNC(=O)OC(C)(C)C (stereo not drawn) [Example 56, Tert-butyl (4b-hydroxy-7-isopropyl-10-oxo-4b, 10-dihydro-9bH-indeno[1,2-b]benzofuran-9b-yl)ethan-1,2-diyl dicarbamate] | > 10 µg/mL | > 10 µg/mL | > 10 µg/mL | < 10 µg/mL | < 10 µg/mL | > 10 µg/mL | > 10 µg/mL | > 10 µg/mL
17 | CC(C)c1ccc2c(c1)OC1(O)c3ccccc3C(=O)C21NC(N)=S (stereo not drawn) [Example 61, 1-(4b-hydroxy-7-isopropyl-10-oxo-4b, 10-dihydro-9bH-indeno[1,2-b]benzofuran-9b-yl)thiourea] | < 10 µg/mL | > 10 µg/mL | > 10 µg/mL | < 0.1 µg/mL | < 1 µg/mL | > 10 µg/mL | > 10 µg/mL | > 10 µg/mL
18 | CCOC(=O)C(=O)NC12C(=O)c3c(N)cccc3C1(O)Oc1cc(C(C)C)ccc12 (stereo not drawn) [Example 36, Ethyl 2-((1-amino-4b-hydroxy-7-isopropyl-10-oxo-4b, 10-dihydro-9bH-indeno[1,2-b]benzofuran-9b-yl)amino)-2-oxo acetate] | < 1 µg/mL | > 10 µg/mL | > 10 µg/mL | < 0.1 µg/mL | < 0.1 µg/mL | < 10 µg/mL | > 10 µg/mL | > 10 µg/mL
19 | CC(=O)C(=O)NC12C(=O)c3ccccc3C1(O)Oc1cc(C(C)C)ccc12 (stereo not drawn) [Example 4, N-(4b-hydroxy-7-isopropyl-10-oxo-9b, 10-dihydro-4bH-indeno[1,2-b]benzofuran-9b-yl)-2-oxo propanamide] | < 0.1 µg/mL | > 9.02 µg/mL | > 9.02 µg/mL | < 0.01 µg/mL | < 0.01 µg/mL | < 1 µg/mL | 9.02 µg/mL (≈ 24.7 µM) | > 10 µg/mL
20 | CC(C)c1ccc2c(c1)OC1(O)c3ccccc3C(=O)C21NC(=O)CCC(=O)N(C)C (stereo not drawn) [Example 44, N1-(4b-hydroxy-7-isopropyl-10-oxo-4b, 10-dihydro-9bH-indeno[1,2-b]benzofuran-9b-yl)-N4, N4-dimethyl succinamide] |  |  |  | < 0.1 µg/mL | < 0.1 µg/mL | < 10 µg/mL |  | > 10 µg/mL
